Measured values: ChEMBL document CHEMBL1151603, “Unsymmetrically substituted guanidines as potent histamine H3-receptor antagonists” (Bioorg Med Chem Lett, 1994)

Tests used:
Histamine H3 receptor [1] = target: T1, Histamine H3 receptor (Cavia porcellus, UniProt Q9JI35); assay: Antagonistic activity for Histamine H3 receptor binding in guinea pig
Histamine H3 receptor [2] = target: T1, Histamine H3 receptor; assay: Antagonistic activity for Histamine H3 receptor on electrically evoked guinea-pig ileum contraction; assay type: functional, tissue-based

T1 sequence (Q9JI35 whole entry): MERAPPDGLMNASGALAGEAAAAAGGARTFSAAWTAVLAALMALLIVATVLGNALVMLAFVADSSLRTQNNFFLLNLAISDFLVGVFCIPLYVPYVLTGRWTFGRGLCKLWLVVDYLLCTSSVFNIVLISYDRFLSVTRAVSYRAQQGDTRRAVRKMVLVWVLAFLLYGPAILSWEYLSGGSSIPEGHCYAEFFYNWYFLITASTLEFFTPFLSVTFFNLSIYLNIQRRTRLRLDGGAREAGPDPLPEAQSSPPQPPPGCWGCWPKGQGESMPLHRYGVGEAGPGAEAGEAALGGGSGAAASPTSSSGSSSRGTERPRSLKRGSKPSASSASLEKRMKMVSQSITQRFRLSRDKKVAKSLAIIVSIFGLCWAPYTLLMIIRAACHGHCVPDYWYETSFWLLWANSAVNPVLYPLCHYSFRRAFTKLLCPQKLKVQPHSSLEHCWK

Compound	Ki (Histamine H3 receptor [1])	Ki (Histamine H3 receptor [2])
N=C(NCCc1ccccc1)NCCc1cnc[nH]1	0.11 µM	0.1 µM
CCOC(=O)N/C(=N/CC1CCCCC1)NCCCc1c[nH]cn1	0.036 µM	0.0398 µM
N#CN=C(NCCCc1cnc[nH]1)NCC1CCCCC1	0.022 µM	0.02 µM
O=C(N/C(=N/CC1CCCCC1)NCCCc1c[nH]cn1)OCc1ccccc1	0.013 µM	0.0126 µM
N=C(NCCCc1c[nH]cn1)NCc1ccc(I)cc1	0.0016 µM	0.00158 µM
S=C(NC1CCCCC1)N1CCC(c2cnc[nH]2)CC1 [THIOPERAMIDE]	–	0.00398 µM

The remaining lines, values ahead:

Ki (Histamine H3 receptor [1])	Ki (Histamine H3 receptor [2])	Compound
0.00501 µM	0.00501 µM	N=C(NCCCCc1c[nH]cn1)NC1CCCCC1
0.007 µM	0.00631 µM	CC(C)(C)OC(=O)N/C(=N/C1CCCCC1)NCCCCc1c[nH]cn1
0.0095 µM	0.01 µM	CC(C)(C)OC(=O)N/C(=N/CC1CCCCC1)NCCCc1c[nH]cn1
0.00074 µM	0.000794 µM	N=C(NCCCc1c[nH]cn1)NCC1CCCCC1
0.012 µM	0.0126 µM	CC(C)(C)OC(=O)N/C(=N\CCCc1c[nH]cn1)NCc1ccc(I)cc1
